# Experiments:
# [1] = system: non-Hodgkin's lymphoma model; test: Non-Hodgkin's lymphoma model; settings: in vivo
# Description: (§1) The effects of C-1523 have been tested in vitro in cultured cancer cells and in vivo with human cell samples. Preclinical pharmacokinetic analyses were conducted to determine the fate of the compound as it is administered.
# primary B-cells (AID+) = test: Dose response in primary B-cells (AID+); assay type: cell-based; settings: FIG. 10
# Description: Dose responses for C-1523 (blue) and C-1523-1a (red) in primary B-cells (AID+) was determined (FIG. 10).
# [2] = system: Primary splenic B-cells from AID-expressing mice; test: Cell viability of primary splenic B-cells, AID-expressing versus AID-negative mice; assay type: cell-based; settings: compared to primary splenic B-cells in AID-negative mice
# Text: Primary splenic B-cells from AID-expressing mice were exposed to C-1523-1a and the BTK inhibitor ibrutinib and cell viability was compared to primary splenic B-cells in AID-negative mice (FIG. 9).
# [3] = Pharmacokinetics after single intravenous injection or oral gavage; assay type: in vivo, Sprague Dawley rats
# Description: C-1523-1A was formulated in PBS with 5% DMSO and given via single intravenous injection (1 milligram per kilogram) or by oral gavage to Sprague Dawley rats (2 milligrams per kilogram). Plasma concentrations were measure by mass spectrometry at t=15 min, t=30 min, t=1 hr, t=2 hr, t=4 hr, and t=8 hr for the intravenous cohort and at t=1 hr, t-2 hr, t-3 hr, t-4 hr, t-5 hr, t-6 hr. […] Oral availability is 2-3% (FIG. 3).
# [4] = Plasma concentration after administration of 2, 10, or 20 milligrams per kilogram; assay type: in vivo, Sprague Dawley rats; settings: Sprague Dawley, rat, 20 mg/kg dosing
# Description: Pharmacokinetic measurements of DIDS, C-1523, and C-1523-1a following oral and intravenous administration to Sprague Dawly rats were made (FIGS. 4-6) and the plasma concentration of C-1523-1a at t=15 min, t=30 min, t=1 hr, t=2 hr, t=8 hr, and t=24 hr following administration of 2, 10, or 20 milligrams per kilogram to Sprague Dawley rats was determined (FIG. 7).
# as §1
# [5] = system: primary splenic B-cells from WT (AID-expressing) mice; settings: Ishida et al., 2009; Lamont et al., 2013; cited from earlier work
# [6] = system: AID-expressing mouse B-lymphocytes
# MEC-1 cells = test: Micronuclei assay; assay type: cell-based, human; settings: cyclophosphamide treatment
# [7] = system: Primary mouse B cells (WT); test: Micronuclei assay; assay type: cell-based; settings: all genotypes tested (WT, AID−/−, and p53−/−), 5 μg/mL, 3 d
# [8] = system: Primary AID-expressing B-cells; test: Cell survival analysis; assay type: cell-based; settings: 100 nM versus vehicle (DMSO)
# Description: FIG. 27 depicts a graph of cell survival analysis of primary AID-expressing B-cells treated with C-1523-1AD4 (100 nM) versus vehicle (DMSO).
# Primary AID-expressing B-cells were sensitive to C-1523-1AD4 (FIG. 27).
compound,measurement,setting,value
"CC(=O)Nc1ccc(/C=C/c2ccc(NC(=S)NC(C)C)cc2S(N)(=O)=O)c(S(N)(=O)=O)c1 [C-1523-1a, (E)-N-(4-(4-(3-isopropylthioureido)-2-sulfamoylstyryl)-3-sulfamoylphenyl)acetamide]",tumors,[1],successfully reduced tumors
same,concentration below which response is consistent,primary B-cells (AID+),below 10 nM
same,potency and selectivity for AID+ cells (cell viability),[2],surprisingly potent and selective for AID+ cells
same,AUC,"[3]; Sprague Dawley, rat, plasma, single intravenous injection 1 milligram per kilogram",971 ng·h/mL
same,half-life,"[3]; Sprague Dawley, rat, plasma, single intravenous injection 1 milligram per kilogram, PBS with 5% DMSO",1.5 h
same,Vd,"[3]; Sprague Dawley, rat, plasma, single intravenous injection 1 milligram per kilogram, read-out: Vss",0.29 L/kg
same,Oral availability,[3]; oral gavage 2 milligrams per kilogram,2-3%
same,half-life,[4],~6 h
same,acute toxicity,in vivo,almost no acute toxicity
same,tolerance to prolonged drug exposure,single and multiple dose,excellent tolerance
"O=S(=O)(O)c1cc(N=C=S)ccc1C=Cc1ccc(N=C=S)cc1S(=O)(=O)O [DIDS, 4,4′-diisothiocyanatostilbene-2,2′-disulfonic acid, reference compound]",cell death,[5],induces cell death in primary B-lymphocytes
same,concentration eliciting AID-specific cytotoxicity,[6],150 µM
"O=P1(N(CCCl)CCCl)NCCCO1 (stereo not drawn) [cyclophosphamide, reference compound]",micronuclei relative to primary cells,MEC-1 cells,approximately half as much micronuclei as primary cells
same,micronuclei,[7],approximately 9%
disodium (E)-((5- acetamido-2-(2-(N- isobutyrylsulfamoyl)-4- (3-isopropylthioureido) styryl)phenyl)sulfonyl) (isobutyryl)amide [C-1523-1AD4],sensitivity (cell survival),[8],sensitive

# From US10927075B2, “Compositions and methods relating to the treatment of cancer, autoimmune disease, and neurodegenerative disease” (THE JACKSON LABORATORY, priority 2014, dated 2021)
